Experimental data reported in article PMC3581553, “New Approaches of PARP-1 Inhibitors in Human Lung Cancer Cells and Cancer Stem-Like Cells by Some Selected Anthraquinone-Derived Small Molecules” (PLoS ONE, 2013).
Read-outs that look alike come from different tables or passages of the source.

How the values were obtained:
[1] = target: T1, PARP-1 (Homo sapiens, UniProt P09874); experiment: PARP inhibitory assay (histone-coated plate, colorimetric); assay type: biochemical
T1 construct: purchased
T1 sequence (P09874 whole entry): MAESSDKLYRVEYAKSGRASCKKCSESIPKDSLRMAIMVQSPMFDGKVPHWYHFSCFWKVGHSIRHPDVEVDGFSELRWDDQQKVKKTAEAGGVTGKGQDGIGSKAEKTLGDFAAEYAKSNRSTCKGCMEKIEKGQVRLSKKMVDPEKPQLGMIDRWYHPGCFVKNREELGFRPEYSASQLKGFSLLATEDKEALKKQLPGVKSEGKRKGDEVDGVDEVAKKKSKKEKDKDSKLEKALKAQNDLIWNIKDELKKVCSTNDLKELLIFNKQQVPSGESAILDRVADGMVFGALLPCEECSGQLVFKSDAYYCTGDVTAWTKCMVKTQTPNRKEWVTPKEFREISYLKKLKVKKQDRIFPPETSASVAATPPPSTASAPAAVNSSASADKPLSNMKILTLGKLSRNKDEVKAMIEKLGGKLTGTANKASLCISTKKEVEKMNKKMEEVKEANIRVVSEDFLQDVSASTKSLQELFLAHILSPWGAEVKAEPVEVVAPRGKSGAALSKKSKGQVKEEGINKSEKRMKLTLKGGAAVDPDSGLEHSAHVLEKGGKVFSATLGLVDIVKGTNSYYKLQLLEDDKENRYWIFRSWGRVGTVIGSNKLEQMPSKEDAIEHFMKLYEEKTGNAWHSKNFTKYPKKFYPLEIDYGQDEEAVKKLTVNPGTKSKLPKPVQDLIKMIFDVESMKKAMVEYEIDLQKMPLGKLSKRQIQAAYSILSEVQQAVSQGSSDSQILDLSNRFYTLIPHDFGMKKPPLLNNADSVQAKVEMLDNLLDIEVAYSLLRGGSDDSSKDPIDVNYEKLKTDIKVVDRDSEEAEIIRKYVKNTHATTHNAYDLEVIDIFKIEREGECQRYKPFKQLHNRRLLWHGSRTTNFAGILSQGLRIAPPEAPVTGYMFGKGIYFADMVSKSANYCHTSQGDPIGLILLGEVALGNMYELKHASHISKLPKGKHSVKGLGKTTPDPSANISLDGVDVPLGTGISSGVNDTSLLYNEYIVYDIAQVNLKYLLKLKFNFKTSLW
Description: We used histone-coated 96-well plate treated with seven putative PARP-1 inhibitors or well-known PARP-1 inhibitors (3-AB), and then added PARP enzyme to each well. PARP enzyme catalyzes the NAD-dependent addition of poly (ADP-ribose) to histone, and diluted Strp-HRP could bind to PARylation histone. TACS-Sapphire™ yielded blue under the HRP existence. In order to systematically evaluate the potential anticancer activity, the compounds were tested for their cytotoxicity in vitro against 60 human cancer lines in the NCI anticancer drug screen as well as for dose response curves and telomerase activity. Cell growth was analyzed by the MTT assay, with differences between dose-response curves analyzed non-parametrically. Telomerase activity was detected by a modified version of the PCR-based assay and TRAP assay. […] However, PARP inhibitory effects had no difference at 1 and 10 µM. As described above, NSC746364, NSC746366 and NSC749232 show dose-dependency only at low concentrations. […] NSC747854 had dose-dependent PARP inhibitory manners at three different concentrations, and reached the maximum inhibitory effect of 86% at 10 µM (Table 4). […] In this investigation, we continued to focus our attention on the role of NSC747854 and to understand the basis of pharmacophore selectivity. Of particular note is the significant difference with these selected compounds, compared with that of 3-AB and PJ-34. […] An electron-rich aromatic ring system, including a carboxamide group, should have at least a hydrogen atom on the amide nitrogen. The amidinium moiety is known to contribute to the stabilization of DNA recognition element through electrostatic and hydrogen bonding interactions. Therefore, hydrogen bonds are frequently used as recognition elements due to their directionality and also due to being attractive factors to the biological activity (Figure 1). Many classes of drugs have substantial curvature, high DNA affinity, binding to the minor-groove or major-groove, interference with DNA-associated enzymes (e.g. telomerase), and Poly (ADP-ribose) polymerase, PARP. […] This approach greatly expands the utility of the substituents and related pharmacophore for the construction of drugs in general. Therefore, it is desirable to design PARP inhibitors in accordance with various anticancer parameters. It was first reported that anthraquinone analogues are potent human PARP inhibitors.
Strip wells were removed from the wrapper and 50 µl of 1X PARP Buffer was added to each well to rehydrate the histones. They were incubated at room temperature for 30 minutes. The 1X PARP buffer was removed from the wells by tapping the strip wells on paper towels. The serial dilutions of inhibitor of interest were added to appropriate wells. The diluted PARP enzyme (0.5 unit/well) was then added to the wells containing inhibitor. They were incubated for 10 minutes at room temperature. The PARP Enzyme-High Specific Activity (PARP-HAS) standard was serially diluted in cold micro-tubes with 1X PARP buffer such that the total activity was 1 unit/25 µl, 0.5 units/25 µl, 0.25 units/25 µl, 0.1 units/25 µl, 0.05 units/25 µl, 0.025 units/25 µl, and 0.01 units/25 µl, respectively. The 25 µl of each standard was added to triplicate wells. The 25 µl of 1X PARP cocktail were distributed into each well by using a multichannel pipettor. The final reaction volume is 50 µl. They were incubated along with the strip wells at room temperature for 60 minutes. The strip wells were washed 2 times with 1X PBS +0.1% Triton X-100 (200 µl/well) followed by 2 washes with 1X PBS. All the liquid was removed following each wash by tapping strip wells onto paper towels. The 50 µl diluted Strep-HRP were added per well. They were incubated at room temperature for 60 minutes. The strip wells were washed 2 times with 1X PBS +0.1% Triton X-100 (200 µl/well) followed by 2 washes with 1X PBS. All the liquid was removed following each wash by tapping strip wells onto paper towels. […]

[2] = system: EKVX; experiment: NCI-60 drug screen (SRB), NSCLC line EKVX; assay type: cell-based, human; settings: for LC50 / GI50: Homo sapiens
Description: (§1) As a primary screening, seven selected compounds were submitted to the National Cancer Institute (NCI) cell lines screen for evaluation of their anticancer activity. From the data analysis, it follows that approximately 95% of the actives from the 60 cell lines screen can be identified. The detailed methods used for the 60 cell lines panel have been described elsewhere [54]–[59]. Briefly, cellular protein levels were determined after 48 hours of drug exposure by SRB colorimetry. Through the use of a time zero cell control, the cell growth can be determined for each cell line thus allowing calculations of GI50, TGI, and LC50. Comparison to plates not exposed to drug permits determination of concentration and times of exposure conferring GI50, TGI, and LC50. […] By these criteria, seven compounds reported from our compounds bank were all active and passed on for evaluation in the full panel of 60 human tumor cell lines. The panel is organized into nine subpanels representing diverse histology: leukemia, melanoma, and cancers of the lung, colon, kidney, ovary, breast, prostate, and central nervous system.

[3] = system: HEL299 cells; experiment: MTT cytotoxicity assay, HEL299 normal fibroblasts; assay type: cell-based; settings: Homo sapiens, HEL 299, 48 h of drug exposure
Description: (§2) Non-small cell lung cancer cells A549 and Oct-4- and Nanog-overexpressed A549 clone (clone #3; A3), presented the properties of cancer stem-like cells, as well as epithelial-mesenchymal transdifferentiation, according to our previous study. They were grown in the same conditions as RPMI 1640 media supplemented with 10% fetal bovine serum (FBS), 100 units/mL penicillin, […] streptomycin, 1 mM sodium pyruvate, 2 mM l-glutamine and 1% non-essential amino acid (NEAA) in a humidified atmosphere with 5% CO2 at 37°C. Normal fibroblast cells HEL299 from American Type Culture Collection (ATCC) were grown in MEM media supplemented with 10% FBS, 100 units/mL penicillin, […] streptomycin, 1 mM sodium pyruvate, 2 mM l-glutamine and 1% NEAA, in a humidified atmosphere with 5% CO2 at 37°C.
(§3) The tetrazolium reagent (MTT; 3-(4,5-dimethylthiazol-2-yl)-2,5-diphenyl-tetrazolium bromide, USB) was designed to yield a colored formazan upon metabolic reduction by viable cells, [61]. Approximately 5×10^4 cells were plated onto each well of a 24-well plate and incubated in 5% CO2 at 37°C for 24 hours. To assess the in vitro cytotoxicity, each compound was dissolved in DMSO and prepared immediately before the experiments and then was diluted into the complete medium before being added to cell cultures. Test compounds were then added to the culture medium in various designated concentrations. After 48 hours, an amount of 100 µl of MTT was added to each well, and the samples were incubated at 37°C for 2 h. 100 µl DMSO was added to each well. The absorbency at 560 nm and reference absorbency at 670 nm were measured using an ELISA reader.

[4] = system: NCI-H23; experiment: NCI-60 drug screen (SRB), NSCLC line NCI-H23; assay type: cell-based, human; settings: for GI50 / CC50: Homo sapiens; for CC50: read-out: LC50 (the source's name)
Description: as §1

[5] = system: Oct-4- and Nanog-overexpressed A549 clone (A3); experiment: MTT cytotoxicity assay, A3 cells; assay type: cell-based; settings: Homo sapiens, 48 h of drug exposure
Description: as §2, §3

[6] = 48 hours drug exposure, SRB, read-out: GI50
[7] = NCI in vitro 60-cell lines Drug Screen, read-out: -Log GI50 (converted)

Structure (SMILES) | inhibition at 0.1 µM [1] | inhibition at 1 µM [1] | inhibition at 10 µM ([1]; 10 µM) | TGI ([2]; 48 hours drug exposure, SRB) | LC50 ([2]; 48 hours drug exposure, SRB) | GI50 [2, 6] | GI50 [2, 7] | IC50 [3] | TGI ([4]; 48 hours drug exposure, SRB) | GI50 [4, 6] | CC50 ([4]; 48 hours drug exposure, SRB) | GI50 [4, 7] | IC50 [5] | PARP inhibitory activity (%) ([1]; 10 µM)
CN(C)CC(=O)Nc1ccc2c(c1)C(=O)c1cc(NC(=O)CN(C)C)ccc1C2=O [NSC746364] | 31% | 54% | 56% | 31.4 µM | 77.4 µM | 12.8 µM | 12.9 µM | 5.67 µM | 28.1 µM | 11 µM | 71.8 µM | 11 µM | 5.9 µM | –
CN(C)CCCSc1nc2ccc3c(c2[nH]1)C(=O)c1ccccc1C3=O [NSC747854] | 30% | 57% | – | 20.1 µM | – | 4.2 µM | 4.17 µM | 27.8 µM | 19.7 µM | 5.73 µM | 46.9 µM | 5.75 µM | 5.88 µM | 65%
Cc1ccc(C(=O)Nc2c(NC(=O)CCl)ccc3c2C(=O)c2ccccc2C3=O)cc1 [NSC749232] | 42% | 51% | 52% | 14.9 µM | > 100 µM | 1.98 µM | 2 µM | 27.1 µM | 8.28 µM | 1.78 µM | 31.4 µM | 1.78 µM | 4.85 µM | –
CCN(CC)CCC(=O)Nc1ccc2c(c1)C(=O)c1cc(NC(=O)CCN(CC)CC)ccc1C2=O [NSC746365] | 50% | 56% | 51% | 11.0 µM | 34.6 µM | 3.05 µM | 3.02 µM | 7.19 µM | 3.55 µM | 1.53 µM | 8.27 µM | 1.51 µM | 5.21 µM | –
CN1CCN(Cc2nc3ccc4c(c3[nH]2)C(=O)c2ccccc2C4=O)CC1 [NSC749235] | 40% | 28% | 58% | 28.8 µM | > 100 µM | 6.69 µM | 6.76 µM | 19.6 µM | 30.1 µM | 10.7 µM | 84.8 µM | 10.7 µM | 7.67 µM | –
O=C(CCN1CCCC1)Nc1ccc2c(c1)C(=O)c1cc(NC(=O)CCN3CCCC3)ccc1C2=O [NSC746366] | 16% | 45% | 47% | 20.4 µM | > 100 µM | 3.57 µM | 3.55 µM | 13.4 µM | 17.3 µM | 2.38 µM | > 100 µM | 2.4 µM | 5.77 µM | –
